{"source": "patent US11331289B2", "about": "“Antimicrobial composition” (priority 2017, dated 2022)", "test_system": "MRSA 16116", "assay": "Time-killing curve, inoculum 5.10^5 CFU/ml (MIC 0.5 μg/ml)", "type": "cell-based, Staphylococcus aureus", "description": "The objective of this study is to assess in vitro the time-killing curves of oxyclozanide against four strains of Methicillin-Resistant Staphylococcus from dogs.\nTwo Methicillin-Resistant Staphylococcus aureus (MRSA) and two Methicillin-Resistant Staphylococcus pseudintermedius (MRSP) isolated from the clinics have been tested.\nThe assessment of time-killing curves has been realized by a broth macrodilution method (Mueller-Hinton II Broth).\nOxyclozanide is diluted in (DMSO) into sterile tubes in order to obtain the following concentrations from 800 to 6.25 μg/ml. Those concentrations and stock standard solution are then diluted (1/10) in Mueller-Hinton II Broth in order to obtain the following concentrations from […] (See Table 2).\nEach operation is performed under sterile conditions. Each working standard solution (10*the final active ingredient concentration) is distributed in tubes (1 ml, for a final volume of 10 ml after addition of 9 ml of inoculum). One tube without active ingredient is used as growth control (Concentration=0).\nBacterial isolates are sub-cultured from one cryobead on Columbia agar supplemented with 5% of blood. Pure cultures are incubated during 18-24 hours at 37° C. Three to five isolated colonies of similar appearance are selected from a previous culture and transferred into tubes containing 9 ml of Mueller-Hinton II Broth. The broth is incubated during 12-18 hours at 37° C. 0.5 to 1 ml of this broth is inoculated to another Mueller-Hinton II Broth 9 ml tube which is incubated during 3 to 4 hours at 37° C. to reach the exponential growth phase. The bacterial inoculum grown exponential phase is suspended to an optical density of McFarland standard scale 0.5 equivalent to a bacterial density of 10^8 CFU/ml and then adjusted to a concentration of about 5.10^5 CFU/ml as indicated by the guideline CLSI M26-A and to a second inoculum tested: 10^6 CFU/ml.\n9 ml of bacterial inoculum grown to exponential phase is added to 1 ml of active ingredient (or Mueller Hinton II Broth for the growth control). Tubes are incubated at 35° C. during 24 hours.\nAt times 0, 2, 4, 6 and 24 hours, 100 μl of broth of each tube is sampled and diluted in microplates:\nEach well is re-cultured by streaking 10 μl on Columbia agar supplemented with 5% of blood. Plates are incubated at 37° C. during 18-24 hours incubation. Thus, residual bacterial concentrations are determined (CFU/ml). Results are expressed in log10 values of CFU/ml over-time in broth. Due to the procedure used, the minimal bacterial concentration that can be assessed is 10^2 CFU/ml."}
{"smiles": "O=C(Nc1cc(Cl)cc(Cl)c1O)c1c(O)c(Cl)cc(Cl)c1Cl", "note": "[Oxyclozanide]", "values": [{"measurement": "Counting results", "setting": "1 MIC, 0 h", "result": "3.900E+05", "unit": "CFU/ml"}, {"measurement": "Counting results", "setting": "1 MIC, 2 h", "result": "1.700E+06", "unit": "CFU/ml"}, {"measurement": "Counting results", "setting": "1 MIC, 4 h", "result": "2.500E+07", "unit": "CFU/ml"}, {"measurement": "Counting results", "setting": "1 MIC, 6 h", "result": "1.600E+08", "unit": "CFU/ml"}, {"measurement": "Counting results", "setting": "1 MIC, 24 h", "result": "1.300E+08", "unit": "CFU/ml"}, {"measurement": "Counting results", "setting": "2 MIC, 0 h", "result": "3.900E+05", "unit": "CFU/ml"}, {"measurement": "Counting results", "setting": "2 MIC, 2 h", "result": "1.200E+05", "unit": "CFU/ml"}, {"measurement": "Counting results", "setting": "2 MIC, 4 h", "result": "1.300E+04", "unit": "CFU/ml"}, {"measurement": "Counting results", "setting": "2 MIC, 6 h", "result": "1.400E+04", "unit": "CFU/ml"}, {"measurement": "Counting results", "setting": "2 MIC, 24 h", "result": "3.500E+06", "unit": "CFU/ml"}, {"measurement": "Counting results", "setting": "4 MIC, 0 h", "result": "3.900E+05", "unit": "CFU/ml"}, {"measurement": "Counting results", "setting": "4 MIC, 2 h", "result": "6.000E+03", "unit": "CFU/ml"}, {"measurement": "Counting results", "setting": "4 MIC, 4 h", "result": "6.000E+02", "unit": "CFU/ml"}, {"measurement": "Counting results", "setting": "4 MIC, 6 h", "result": "4.000E+02", "unit": "CFU/ml"}, {"measurement": "Counting results", "setting": "4 MIC, 24 h", "result": "1.000E+02", "unit": "CFU/ml"}, {"measurement": "Counting results", "setting": "8 MIC, 0 h", "result": "3.900E+05", "unit": "CFU/ml"}, {"measurement": "Counting results", "setting": "8 MIC, 2 h", "result": "5.000E+02", "unit": "CFU/ml"}, {"measurement": "Counting results", "setting": "8 MIC, 4 h", "result": "1.000E+02", "unit": "CFU/ml"}, {"measurement": "Counting results", "setting": "8 MIC, 6 h", "result": "1.000E+02", "unit": "CFU/ml"}, {"measurement": "Counting results", "setting": "8 MIC, 24 h", "result": "1.000E+02", "unit": "CFU/ml"}, {"measurement": "Counting results", "setting": "16 MIC, 0 h", "result": "3.900E+05", "unit": "CFU/ml"}, {"measurement": "Counting results", "setting": "16 MIC, 2 h", "result": "3.000E+02", "unit": "CFU/ml"}, {"measurement": "Counting results", "setting": "16 MIC, 4 h", "result": "1.000E+02", "unit": "CFU/ml"}, {"measurement": "Counting results", "setting": "16 MIC, 6 h", "result": "3.000E+02", "unit": "CFU/ml"}, {"measurement": "Counting results", "setting": "16 MIC, 24 h", "result": "1.000E+02", "unit": "CFU/ml"}, {"measurement": "Time to obtain bactericidal effect at 4 MIC", "setting": "16116/5.10^5 CFU/ml, >=3 log10 decrease in CFU", "result": "4 to 6", "unit": "h"}, {"measurement": "Counting results", "setting": "¼ MIC, 0 h", "result": "3.900E+05", "unit": "CFU/ml"}, {"measurement": "Counting results", "setting": "¼ MIC, 2 h", "result": "2.000E+06", "unit": "CFU/ml"}, {"measurement": "Counting results", "setting": "¼ MIC, 4 h", "result": "4.000E+07", "unit": "CFU/ml"}, {"measurement": "Counting results", "setting": "¼ MIC, 6 h", "result": "3.000E+08", "unit": "CFU/ml"}, {"measurement": "Counting results", "setting": "¼ MIC, 24 h", "result": "1.900E+09", "unit": "CFU/ml"}, {"measurement": "Counting results", "setting": "½ MIC, 0 h", "result": "3.900E+05", "unit": "CFU/ml"}, {"measurement": "Counting results", "setting": "½ MIC, 2 h", "result": "1.700E+06", "unit": "CFU/ml"}, {"measurement": "Counting results", "setting": "½ MIC, 4 h", "result": "3.000E+07", "unit": "CFU/ml"}, {"measurement": "Counting results", "setting": "½ MIC, 6 h", "result": "1.400E+08", "unit": "CFU/ml"}, {"measurement": "Counting results", "setting": "½ MIC, 24 h", "result": "2.600E+08", "unit": "CFU/ml"}]}
